Biological target: Carbonic anhydrase 13 (Mus musculus, UniProt Q9D6N1)
Sequence (Q9D6N1 whole entry): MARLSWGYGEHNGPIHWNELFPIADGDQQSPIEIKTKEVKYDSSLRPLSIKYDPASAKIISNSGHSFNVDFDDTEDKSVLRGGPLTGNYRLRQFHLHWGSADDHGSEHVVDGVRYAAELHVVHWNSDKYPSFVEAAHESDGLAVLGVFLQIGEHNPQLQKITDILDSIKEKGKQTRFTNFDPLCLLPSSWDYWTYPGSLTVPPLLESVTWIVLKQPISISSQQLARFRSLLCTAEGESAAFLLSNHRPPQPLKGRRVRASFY
Description: Inhibitory activity against murine carbonic anhydrase XIII (mCA XIII) by using CO2 hydrase assay method

Compound | Ki [nM]
Nc1ccc(S(=O)(=O)NCc2ccc(S(N)(=O)=O)cc2)cc1 | 1.9
Nc1ccc(S(N)(=O)=O)cc1I | 50
Nc1ccc(S(=O)(=O)Nc2ccc(S(N)(=O)=O)cc2)cc1 | 2.4
Nc1ccccc1S(N)(=O)=O | 43
Nc1ccc(S(N)(=O)=O)cc1Br | 54
Nc1ccc(S(N)(=O)=O)cc1F | 50
NCCc1ccc(S(N)(=O)=O)cc1 | 43
Nc1ccc(S(N)(=O)=O)cc1Cl | 56
Nc1ccc(S(=O)(=O)NCCc2ccc(S(N)(=O)=O)cc2)cc1 | 1.3
NCc1ccc(S(N)(=O)=O)cc1 [MAFENIDE] | 41
Nc1ccc(S(N)(=O)=O)cc1 [SULFANILAMIDE] | 32

— ChEMBL document CHEMBL1146805, “Carbonic anhydrase inhibitors. Inhibition of cytosolic isozyme XIII with aromatic and heterocyclic sulfonamides: a novel target for the drug design” (Bioorg Med Chem Lett, 2004)
